Measurements published in PubChem BioAssay (NCI).
“And” between values parts separate entries of the source, which are not always exact repeats. Equal values may be shown once.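 1) Cells in 96-well plates. 2) Compound, 48 h, 5 concentrations. 3) Linear interpolation between surrounding doses. 4) Unreached endpoint = highest concentration. At the GI50, growth is halved. TGI is the concentration that stops growth completely.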

Tests used:
Assay in all cases: NCI anticancer screen, dose series, 48 h
TK-10 renal = test system: TK-10 renal
OVCAR-5 ovarian = test system: OVCAR-5 ovarian
SF-268 CNS = test system: SF-268 CNS
COLO 205 colon = test system: COLO 205 colon
HOP-62 NSCLC = test system: HOP-62 NSCLC
SF-539 CNS = test system: SF-539 CNS
SK-MEL-5 melanoma = test system: SK-MEL-5 melanoma
NCI-H522 lung = test system: NCI-H522 lung
786-0 renal = test system: 786-0 renal
UO-31 renal = test system: UO-31 renal
T-47D breast = test system: T-47D breast
A549 NSCLC = test system: A549 NSCLC
DU-145 prostate = test system: DU-145 prostate
RXF 393 renal = test system: RXF 393 renal
OVCAR-8 ovarian = test system: OVCAR-8 ovarian
CAKI-1 renal = test system: CAKI-1 renal
CCRF-CEM leukemia = test system: CCRF-CEM leukemia
UACC-257 melanoma = test system: UACC-257 melanoma
RPMI-8226 leukemia = test system: RPMI-8226 leukemia

Structure (SMILES) | TGI (TK-10 renal) | TGI (OVCAR-5 ovarian) | TGI (SF-268 CNS) | TGI (COLO 205 colon) | TGI (HOP-62 NSCLC) | TGI (SF-539 CNS) | TGI (SK-MEL-5 melanoma) | TGI (NCI-H522 lung) | TGI (786-0 renal) | TGI (UO-31 renal) | TGI (T-47D breast) | GI50 (A549 NSCLC) | TGI (A549 NSCLC) | TGI (DU-145 prostate) | TGI (RXF 393 renal) | TGI (OVCAR-8 ovarian) | TGI (CAKI-1 renal) | TGI (CCRF-CEM leukemia) | TGI (UACC-257 melanoma) | TGI (RPMI-8226 leukemia)
O=S(=O)(O)c1ccc2c(N=Nc3ccc(S(=O)(=O)O)c4ccccc34)c(O)c(S(=O)(=O)O)cc2c1 | > 100 µM | > 100 µM | > 100 µM | > 100 µM | > 100 µM | > 100 µM | > 100 µM | > 100 µM | > 100 µM | > 100 µM | > 100 µM | 28.7 µM and > 100 µM | > 100 µM | > 100 µM | > 100 µM | > 100 µM | > 100 µM | > 100 µM | > 100 µM | > 100 µM
CC/C(Cl)=N\OC(=O)Nc1ccc(OC)c(C)c1 | 41.7 µM | 71.6 µM | > 77.1 µM | 31.4 µM | > 82.5 µM | 42 µM | 39.1 µM | 4.18 µM | 36.8 µM | 35.5 µM | 39.1 µM |  | > 71.4 µM | > 100 µM | 31 µM | 39.2 µM | 1.84 µM | > 38.8 µM | 37 µM | > 55.8 µM
Nc1ncc(C=O)c(NCC2(CO)CCC2)n1 | 73.8 µM | > 100 µM | > 100 µM | > 100 µM | > 100 µM | > 100 µM | 86.9 µM | > 100 µM | > 100 µM | > 100 µM | 88.9 µM |  | > 100 µM | > 100 µM | > 100 µM | > 100 µM | 44.3 µM | > 100 µM | > 100 µM | > 100 µM
CCC/C(Cl)=N/OC(NC(=O)OCC)(C(F)(F)F)C(F)(F)F | 33.3 µM | 33.2 µM | 36.6 µM | 36.9 µM | > 100 µM | 30.3 µM | 71.4 µM | > 100 µM | 31.2 µM | 33.8 µM | 66.9 µM |  | > 100 µM | > 100 µM | 33.6 µM | > 100 µM | 35.6 µM | 87.9 µM | 37.7 µM | 56.1 µM
CO[C@]12S[C@@H]3CCCC[C@@]31C(C)(C)C(=O)N2c1ccccc1 | > 100 µM | > 100 µM | > 100 µM | 44 µM | 53.5 µM | 28.6 µM | 43.3 µM | > 100 µM | > 100 µM | > 100 µM | > 100 µM |  | > 100 µM | > 100 µM | > 100 µM | > 100 µM | > 100 µM | > 100 µM | > 100 µM | 73 µM
